Reference: the NIST ThermoML archive (doi:10.1021/je050001c)
Numbers after ± are expanded uncertainties.

Settings: 101.33 kPa, Liquid; for viscosity: Falling or rolling sphere viscometry

Compound	mass density (293.15 K)	viscosity (293.15 K)	mass density (298.15 K)	viscosity (298.15 K)	mass density (303.15 K)	viscosity (303.15 K)	mass density (308.15 K)	viscosity (308.15 K)	mass density (313.15 K)	viscosity (313.15 K)	mass density (318.15 K)	viscosity (318.15 K)	mass density (323.15 K)	viscosity (323.15 K)	mass density (328.15 K)	viscosity (328.15 K)	mass density (333.15 K)	viscosity (333.15 K)	mass density (338.15 K)	viscosity (338.15 K)	further results
CCOC(C)=O [ethyl acetate]	900.48 ± 2.9 kg/m3	0.443 ± 0.009 mPa·s	894.81 ± 3 kg/m3	0.421 ± 0.009 mPa·s	887.14 ± 3.1 kg/m3	0.399 ± 0.009 mPa·s	882.21 ± 3.2 kg/m3	0.381 ± 0.009 mPa·s	878.92 ± 3.3 kg/m3	0.363 ± 0.009 mPa·s	874.51 ± 3.4 kg/m3	0.346 ± 0.008 mPa·s	870.39 ± 3.4 kg/m3	0.33 ± 0.008 mPa·s	867.13 ± 3.5 kg/m3	0.315 ± 0.008 mPa·s	864.72 ± 3.5 kg/m3	0.301 ± 0.008 mPa·s	861.41 ± 3.6 kg/m3	0.288 ± 0.008 mPa·s	mass density (343.15 K): 858.36 ± 3.6 kg/m3; viscosity (343.15 K): 0.275 ± 0.008 mPa·s
CCCCOC(=O)CCC [butyl butanoate]	872.45 ± 3.4 kg/m3	0.948 ± 0.011 mPa·s	869.14 ± 3.5 kg/m3	0.876 ± 0.011 mPa·s	866.1 ± 3.5 kg/m3	0.812 ± 0.011 mPa·s	862.19 ± 3.6 kg/m3	0.755 ± 0.01 mPa·s	858.94 ± 3.6 kg/m3	0.705 ± 0.01 mPa·s	854.31 ± 3.7 kg/m3	0.659 ± 0.01 mPa·s	851.47 ± 3.8 kg/m3	0.618 ± 0.01 mPa·s	848.01 ± 3.8 kg/m3	0.581 ± 0.009 mPa·s	846.22 ± 3.8 kg/m3	0.548 ± 0.009 mPa·s	844.03 ± 3.9 kg/m3	0.517 ± 0.009 mPa·s	mass density (343.15 K): 841.47 ± 3.9 kg/m3; viscosity (343.15 K): 0.486 ± 0.009 mPa·s
CCCCOC(C)=O [butyl ethanoate]	881.04 ± 5.9 kg/m3	0.732 ± 0.01 mPa·s	876.45 ± 5.9 kg/m3	0.677 ± 0.01 mPa·s	871.3 ± 5.9 kg/m3	0.628 ± 0.009 mPa·s	866.25 ± 5.9 kg/m3	0.585 ± 0.009 mPa·s	861.84 ± 6 kg/m3	0.546 ± 0.009 mPa·s	857.32 ± 6 kg/m3	0.512 ± 0.009 mPa·s	854.61 ± 6 kg/m3	0.481 ± 0.009 mPa·s	850.78 ± 6 kg/m3	0.453 ± 0.009 mPa·s	847.92 ± 6 kg/m3	0.428 ± 0.009 mPa·s	844.39 ± 6 kg/m3	0.405 ± 0.009 mPa·s	mass density (343.15 K): 841.77 ± 6.1 kg/m3; viscosity (343.15 K): 0.384 ± 0.009 mPa·s
CCC/C=C/COC(C)=O [(E)-2-hexenyl acetate]	897.84 ± 3 kg/m3	0.901 ± 0.012 mPa·s	894.32 ± 3.1 kg/m3	0.831 ± 0.011 mPa·s	891.78 ± 3.1 kg/m3	0.77 ± 0.011 mPa·s	888.46 ± 3.2 kg/m3	0.715 ± 0.011 mPa·s	884.35 ± 3.2 kg/m3	0.666 ± 0.01 mPa·s	880.19 ± 3.3 kg/m3	0.622 ± 0.01 mPa·s	876.14 ± 3.4 kg/m3	0.582 ± 0.01 mPa·s	872.81 ± 3.4 kg/m3	0.547 ± 0.01 mPa·s	867.49 ± 3.5 kg/m3	0.514 ± 0.009 mPa·s	–	–	–
CCCCCC(=O)OCC [ethyl hexanoate]	879.01 ± 3.3 kg/m3	0.816 ± 0.011 mPa·s	872.53 ± 3.4 kg/m3	0.757 ± 0.011 mPa·s	869.31 ± 3.5 kg/m3	0.704 ± 0.011 mPa·s	866.74 ± 3.5 kg/m3	0.656 ± 0.01 mPa·s	863.28 ± 3.6 kg/m3	0.614 ± 0.01 mPa·s	860.19 ± 3.6 kg/m3	0.576 ± 0.01 mPa·s	856.42 ± 3.7 kg/m3	0.541 ± 0.01 mPa·s	851.93 ± 3.8 kg/m3	0.509 ± 0.009 mPa·s	847.88 ± 3.8 kg/m3	0.482 ± 0.009 mPa·s	845.32 ± 3.9 kg/m3	0.456 ± 0.009 mPa·s	mass density (343.15 K): 841.46 ± 4 kg/m3; viscosity (343.15 K): 0.429 ± 0.009 mPa·s
CCCCCCOC(C)=O [hexyl ethanoate]	872.9 ± 3.4 kg/m3	1.118 ± 0.013 mPa·s	867.3 ± 3.5 kg/m3	1.036 ± 0.012 mPa·s	862.6 ± 3.6 kg/m3	0.962 ± 0.012 mPa·s	858.33 ± 3.6 kg/m3	0.895 ± 0.011 mPa·s	854.9 ± 3.7 kg/m3	0.836 ± 0.011 mPa·s	848.84 ± 3.8 kg/m3	0.782 ± 0.011 mPa·s	844.21 ± 3.9 kg/m3	0.733 ± 0.01 mPa·s	839.64 ± 4 kg/m3	0.689 ± 0.01 mPa·s	835.15 ± 4 kg/m3	0.649 ± 0.01 mPa·s	831.4 ± 4.1 kg/m3	0.612 ± 0.01 mPa·s	mass density (343.15 K): 826.3 ± 4.2 kg/m3; viscosity (343.15 K): 0.579 ± 0.01 mPa·s
CC/C=C\CCOC(C)=O [(Z)-3-hexenyl acetate]	900.82 ± 2.9 kg/m3	0.893 ± 0.011 mPa·s	897.14 ± 3 kg/m3	0.823 ± 0.01 mPa·s	893.14 ± 3 kg/m3	0.763 ± 0.01 mPa·s	890.28 ± 3.1 kg/m3	0.708 ± 0.01 mPa·s	886.19 ± 3.2 kg/m3	0.66 ± 0.01 mPa·s	881.43 ± 3.2 kg/m3	0.616 ± 0.009 mPa·s	877.89 ± 3.3 kg/m3	0.576 ± 0.009 mPa·s	875.21 ± 3.4 kg/m3	0.542 ± 0.009 mPa·s	871.43 ± 3.4 kg/m3	0.509 ± 0.009 mPa·s	–	–	–
CC(=O)OCCC(C)C [3-methylbutyl ethanoate]	878.24 ± 12 kg/m3	0.888 ± 0.012 mPa·s	876.01 ± 12 kg/m3	0.827 ± 0.011 mPa·s	875.94 ± 12 kg/m3	0.773 ± 0.011 mPa·s	873.1 ± 12 kg/m3	0.724 ± 0.011 mPa·s	870.15 ± 12 kg/m3	0.678 ± 0.01 mPa·s	867.32 ± 12 kg/m3	0.638 ± 0.01 mPa·s	864.31 ± 12 kg/m3	0.601 ± 0.01 mPa·s	860.14 ± 12 kg/m3	0.567 ± 0.01 mPa·s	857.98 ± 12 kg/m3	0.536 ± 0.009 mPa·s	854.05 ± 12 kg/m3	0.507 ± 0.009 mPa·s	mass density (343.15 K): 851.07 ± 12 kg/m3; viscosity (343.15 K): 0.481 ± 0.009 mPa·s
CCOC=O [ethyl methanoate]	917.82 ± 2.8 kg/m3	0.402 ± 0.009 mPa·s	912.06 ± 2.9 kg/m3	0.381 ± 0.009 mPa·s	907.68 ± 2.9 kg/m3	0.362 ± 0.009 mPa·s	899.54 ± 3 kg/m3	0.345 ± 0.009 mPa·s	891.5 ± 3.2 kg/m3	0.329 ± 0.009 mPa·s	887.41 ± 3.2 kg/m3	0.314 ± 0.009 mPa·s	882.14 ± 3.3 kg/m3	0.3 ± 0.009 mPa·s	–	–	–	–	–	–	–
